Source: patent US8999942B2, “Polyol modified aminoglycoside-lipid conjugates” (University of Manitoba, priority 2010, dated 2015)
Values after ≈ are worked out from the molar mass of the structure shown.

How the values were obtained:
[1] = tested on: Stenotrophomonas maltophilia (CAN-ICU 62585); assay: MIC, broth macrodilution (CLSI), S. maltophilia; format: cell-based; conditions: S. maltophilia, footnote CAN-ICU 62584
Method: (§1) All compounds were tested against American Type Culture Collection (ATCC) reference strains as well as clinical isolates from the Canadian Intensive Care Unit (CAN-ICU) study (Zhanel, et al., 2008). […] Antibacterial activity against Gram-positive and Gram-negative microorganisms was performed via broth macrodilution tests using CLSI methodology (Clinical and Laboratory Standards Institute, 2006). The minimum inhibitory concentration (MIC) in μg/mL of the aminoglycoside-derived amphiphilic polycarbamates and polyethers were determined using established methods (Clinical and Laboratory Standards Institute, 2006) and are shown in Tables 1 and 2, respectively.

[2] = tested on: E. coli (Gentamicin-resistant) CAN-ICU 61714; assay: MIC, broth macrodilution (CLSI), gentamicin-resistant E. coli; format: cell-based; conditions: for Minimal Inhibitory Concentration (MIC): footnote ATCC 6174 (gentamicin resistant)
Method: as §1

[3] = tested on: S. epidermidis ATCC 14990; assay: MIC, broth macrodilution (CLSI), S. epidermidis; format: cell-based, Staphylococcus epidermidis; conditions: for Minimal Inhibitory Concentration (MIC): footnote ATCC 1490
Method: as §1

[4] = tested on: E. coli (Amikacin MIC 32) CAN-ICU 63074; assay: MIC, broth macrodilution (CLSI), E. coli CAN-ICU 63074; format: cell-based
Method: as §1

[5] = tested on: methicillin-resistant Staphylococcus aureus (MRSA) ATCC 33592; assay: MIC, broth macrodilution (CLSI), MRSA ATCC 33592; format: cell-based; conditions: MRSA, methicillin-resistant S. aureus ATCC 33592
Method: as §1

[6] = tested on: Pseudomonas aeruginosa ATCC 27853; assay: MIC, broth macrodilution (CLSI), P. aeruginosa ATCC 27853; format: cell-based
Method: as §1

[7] = tested on: S. pneumoniae ATCC 13883; assay: MIC, broth macrodilution (CLSI), S. pneumoniae ATCC 13883; format: cell-based
Method: as §1

[8] = tested on: Acinetobacter baumanni (CAN-ICU 63169); assay: MIC, broth macrodilution (CLSI), A. baumannii; format: cell-based; conditions: A. baumannii CAN-ICU 63169
Method: as §1

[9] = tested on: Streptococcus pneumoniae ATCC 49619; assay: MIC, broth macrodilution (CLSI), S. pneumoniae ATCC 49619; format: cell-based
Method: as §1

[10] = tested on: methicillin-resistant Staphylococcus epidermidis (MRSE) CAN-ICU 61589; assay: MIC, broth macrodilution (CLSI), MRSE; format: cell-based; conditions: methicillin-resistant S. epidermidis, footnote (ATCC 14990)
Method: as §1

[11] = tested on: E. coli ATCC 25922; assay: MIC, broth macrodilution (CLSI), E. coli ATCC 25922; format: cell-based
Method: as §1

[12] = tested on: S. aureus ATCC 29213; assay: MIC, broth macrodilution (CLSI), S. aureus ATCC 29213; format: cell-based, Staphylococcus aureus
Method: as §1

[13] = tested on: P. aeruginosa (Gent-R) CAN-ICU 62308; assay: MIC, broth macrodilution (CLSI), P. aeruginosa CAN-ICU 62308; format: cell-based, Pseudomonas aeruginosa
Method: as §1

Row | SMILES | Minimal Inhibitory Concentration (MIC) [1] [µg/mL] | Minimal Inhibitory Concentration (MIC) [2] [µg/mL] | Minimal Inhibitory Concentration (MIC) [3] [µg/mL] | Minimal Inhibitory Concentration (MIC) [4] [µg/mL] | Minimal Inhibitory Concentration (MIC) [5] [µg/mL] | Minimal Inhibitory Concentration (MIC) [6] [µg/mL] | Minimal Inhibitory Concentration (MIC) [7] [µg/mL] | Minimal Inhibitory Concentration (MIC) [8] [µg/mL] | Minimal Inhibitory Concentration (MIC) [9] [µg/mL] | Minimal Inhibitory Concentration (MIC) [10] [µg/mL] | Minimal Inhibitory Concentration (MIC) [11] [µg/mL] | Minimal Inhibitory Concentration (MIC) [12] [µg/mL] | Minimal Inhibitory Concentration (MIC) [13] [µg/mL] | also measured
1 | NCC[C@H](O)C(=O)N[C@@H]1C[C@H](N)[C@@H](O[C@H]2O[C@H](CN)[C@@H](O)[C@H](O)[C@H]2O)[C@H](O)[C@H]1O[C@H]1O[C@H](CO)[C@@H](O)[C@H](N)[C@H]1O [Amikacin, reference compound] | – | – | – | – | – | – | – | – | – | – | – | – | – | MIC ([1]; Stenotrophomonas maltophilia, read-out: Minimal Inhibitory Concentration (MIC)): > 512 µg/mL; MIC ([2]; Escherichia coli, ATCC6174, footnote ATCC 6174 (gentamicin resistant), read-out: Minimal Inhibitory Concentration (MIC)): 2 µg/mL (≈ 3.42 µM); MIC ([3]; Staphylococcus epidermidis, ATCC 1490 / ATCC 14990, footnote ATCC 1490, read-out: Minimal Inhibitory Concentration (MIC)): 1 µg/mL (≈ 1.71 µM); MIC ([4]; Escherichia coli, read-out: Minimal Inhibitory Concentration (MIC)): 32 µg/mL (≈ 54.6 µM); MIC ([5]; Staphylococcus aureus, read-out: Minimal Inhibitory Concentration (MIC)): 8 µg/mL (≈ 13.7 µM); MIC ([6]; Pseudomonas aeruginosa, ATCC27853, read-out: Minimal Inhibitory Concentration (MIC)): 4 µg/mL (≈ 6.83 µM); MIC ([7]; Streptococcus pneumoniae, ATCC13883, read-out: Minimal Inhibitory Concentration (MIC)): 0.5 µg/mL (≈ 0.854 µM); MIC ([8]; read-out: Minimal Inhibitory Concentration (MIC)): 128 µg/mL (≈ 219 µM); MIC ([9]; Streptococcus pneumoniae, ATCC49619, read-out: Minimal Inhibitory Concentration (MIC)): 8 µg/mL (≈ 13.7 µM); MIC ([10]; Staphylococcus epidermidis, ATCC 14990 / MRSE, read-out: Minimal Inhibitory Concentration (MIC)): 2 µg/mL (≈ 3.42 µM); MIC ([11]; Escherichia coli, ATCC25922, read-out: Minimal Inhibitory Concentration (MIC)): 4 µg/mL (≈ 6.83 µM); MIC ([12]; Staphylococcus aureus, ATCC29213, read-out: Minimal Inhibitory Concentration (MIC)): 4 µg/mL (≈ 6.83 µM); MIC ([13]; Pseudomonas aeruginosa, read-out: Minimal Inhibitory Concentration (MIC)): 128 µg/mL (≈ 219 µM)
2 | NCC1OC(OC2C(N)CC(N)C(OC(=O)Nc3ccc(Cl)cc3)C2OC2OC(COC(=O)Nc3ccc(Cl)cc3)C(OC3OC(CN)C(OC(=O)Nc4ccc(Cl)cc4)C(OC(=O)Nc4ccc(Cl)cc4)C3N)C2OC(=O)Nc2ccc(Cl)cc2)C(N)C(OC(=O)Nc2ccc(Cl)cc2)C1OC(=O)Nc1ccc(Cl)cc1.O=C(O)C(F)(F)F.O=C(O)C(F)(F)F.O=C(O)C(F)(F)F.O=C(O)C(F)(F)F.O=C(O)C(F)(F)F.O=C(O)C(F)(F)F (stereo not drawn) [Compound 2] | 128 | >256 | 16 | 256 | 64 | >256 | 256 | >256 | 128 | 32 | >256 | 64 | 256 | –
3 | CCCCCCNC(=O)OCC1OC(OC2C(OC(=O)NCCCCCC)C(N)CC(N)C2OC2OC(CN)C(OC(=O)NCCCCCC)C(OC(=O)NCCCCCC)C2N)C(OC(=O)NCCCCCC)C1OC1OC(CN)C(OC(=O)NCCCCCC)C(OC(=O)NCCCCCC)C1N.O=C(O)C(F)(F)F.O=C(O)C(F)(F)F.O=C(O)C(F)(F)F.O=C(O)C(F)(F)F.O=C(O)C(F)(F)F.O=C(O)C(F)(F)F (stereo not drawn) [Compound 3] | >256 | 8 | 1 | 32 | 256 | >256 | 4 | >256 | 8 | 2 | 8 | 2 | 256 | –
4 | NC[C@@H]1O[C@H](O[C@H]2[C@@H](O)[C@H](O[C@@H]3[C@@H](O)[C@H](N)C[C@H](N)[C@H]3O[C@H]3O[C@H](CN)[C@@H](O)[C@H](O)[C@H]3N)O[C@@H]2CO)[C@H](N)[C@@H](O)[C@@H]1O [Neomycin B, reference compound] | >512 | 8 | 0.25 | – | 256 | 512 | 1 | 64 | 32 | 0.5 | 4 | 1 | 512 | –
